pEC50: −log10 of the molar value. Where two headings read alike, the source gives them in different places.
How the values were obtained:
liver cells = test: liver protection effect in carbon tetrachloride / D-galactosamine model, serum ALT (GPT) or AST in rats, oral for 4 days; type: in vivo; conditions: 100 mg/kg, p.o
Procedure: The efficacy of compounds of formulas (I)a, (I)b, (I)c and (I)d was measured according to the method of carbon tetrachloride model [referred to: Philippe letteron et al., Biochemical Pharmacology, 39, 12, 2027~2034, 1990] and D-galactosamine model [referred to: Koji Hase et al., Biol. Pharm. Bull., 20, 4, 381~385, 1997].
Carbon tetrachloride and D-galactosamine are known as the compounds inducing the severe damage to liver cells, because carbon tetrachloride suppresses the biosysthesis of protein in the liver and induces the necrosis of liver cells, and D-galactosamine also induces the necrosis of liver cells by changing the structure of liver cell membranes.
In the present invention, the compounds of formulas (I)a, (I)b, (I)c and (I)d were orally administered to the rats as experimental animals for 4 days, and then the liver protection effect was examined by measuring the serum ALT or AST values in the experimental animals (referred to: Biol. Prarm. Bull., 20, 4, 38 1~385, 1997; Toxicology and Applied Pharmacology, 95, 1~11, 1988).
Following is calculation formula to evaluate liver protection properties of compounds of formulas (I)a, (I)b, (I)c and (I)d; [formula]
the control group means the group to which carbon tetrachloride or D-galactosamine is administered and the liver cells are impaired;
the normal group means the group to which normal solution is administered.
The liver protection effects of compounds of formulas (I)a, (I)b, (I)c and (I)d are shown to following Table 1 in comparison with known liver protection compound silimarin.

ICR mouse = test: acute toxicity in ICR mouse; type: in vivo
Procedure: (§1) On the other hand, the acute toxicity of compounds of formulas (I)a, (I)b, (I)c and (I)d is measured using mouse according to the standard of drug toxicity test. The mouse is selected from the 4 weeks old ICR mouse and each dosage of 250 mg/kg, 500 mg/kg, 1,000 mg/kg and 2,000 mg/kg compounds of formulas (I)a, (I)b, (I)c and (I)d are administered after suspending the compounds in the corn oil.

[1] = acute toxicity in ICR mouse; type: in vivo; conditions: mouse, in vivo, read-out: Lethal ratio (%)
Procedure: as §1

[2] = cytotoxicity test, neutral red dye uptake method; type: cell-based; conditions: human, 2.2.15 cells, 2.2.15 cell culture, A510, read-out: IC50 (cytotoxicity)
Procedure: Cytotoxivity test was carried out in order to determine whether the antiviral effect of the compound according to the present invention is due to the general influence on cell growth or not. In the present experiment, neutral red dye uptake method was used. This is a standard method widely utilized for examining cell survival, by which the variety of relations between viruses such as HSV or HIV and host organism can be understood.
Cytotoxicity test was performed on a 96-well tissue culture plate. Cells were cultured and treated with test compounds in the same manner as Biological Example 1, and the experiments at 4-kind concentrations were repeated threetimes, respectively. Since the relative toxicity can be determined form the uptake level of neutral red dye, quantitative analysis was carried out using the absorbance of internalized dye at 510 nm (A510).

HBV [3] = test: inhibitory effect on HBV replication in 2.2.15 cell culture; type: cell-based; conditions: for pEC50: Hepatitis B virus, 216 h, read-out: ED50 (inhibitory effect on HBV replication); for SI (selectivity Index, IC50/ED50): cytotoxicity IC50 / anti-HBV ED50, 2.2.15 cell
Procedure: Test for identifying the anti HBV effect of the compound of the present invention was carried out according to a known assay method (see, Korba and Milman, Antiviral Res., 15, 217, 1991). The assay procedure is briefly described in the following.
2.2.15. cell was cultured and preserved in RPM 11640 culture medium containing 5% fetal bovine serum (FBS), 2 mM glutamine and 50 μg/ml gentamicin sulfate. Resistance to G418 of the cell culture and degree of Mycoplasma contamination were examined according to conventional methods.
Cells (1×10^4 /cm^2) were inoculated into a multi-well tissue culture plate, confluently cultured for 7 days, and then kept for 2 or 3 days in confluent condition to stabilize the HBV DNA level. Then, culture medium was replaced 24 hours before cells were exposed to test compound. During the treatment of 9 days, culture medium was replaced and then test compound was added to the fresh culture medium at intervals of 24 hours. Culture medium was collected immediately before the first introduction of test compound, and after 3, 6, 9 days, respectively, and stored at -70° C. before HBV DNA analysis. Then, cytolysis was carried out to analyze the intracellular HBV DNA.
To analyze the extracellular HBV DNA, 0.2 ml of culture medium was incubated in 1M NaOH/10×SSC (1×SSC=0.15M NaCl/0.015M sodium citrate, pH 7.2) for 20 minutes at 25° C. and then immediately applied to a nitrocellulose membrane presoaked in 20×SSC using a slot blot apparatus. The sample was washed twice with 0.5 ml of 1M Tris/2M NaCl (pH 7.2) and once with 0.5 ml of 20×SSC to neutralize, and then it was washed again with 2×SSC and heated at […] for one hour under vacuum. Generally, the cells which have been cultured and preserved in a dish having a diameter of 10 cm are dissolved in 6 ml of lysis buffer, and the […] DNA is prepared according to the method of Korba et al., 1991.
10 μg/lane of cellular DNA sample was digested with restriction enzyme Hind III. Then, the digested sample was applied to 1% agarose gel electrophoresis and transferred to a nitrocellulose membrane.
3.2 kb HBV DNA fragment obtained by EcoR I-digestion and purification was labeled with [^32 P]dCTP using nick translation method. This labeled fragment was used as a hybridization probe. Condition for hybridization and post-washing were controlled by referring to the method of Korba et al., 1991 and HBV nucleic acid content among test sample was determined by Ambis beta scanner. The relative radioactivity of ^32 P hybridized to the test sample was compared with that of ^32 P hybridized to the standard amount of HBV DNA which was applied to each nitrocellulose membrane filter (gel or slot blot). From the calibration curve, the amount of HBV DNA corresponding to the relative cpm value was calculated.
Since the content of intracellular and extracellular HBV DNA has some inherent variations, only inhibition greater than 3.5-fold in the case of HBV virion DNA or 3.0-fold in the case of HBV DNA replication intermediates form the average level of HBV DNA formed in the untreated cell were considered to be statistically significant (P<0.05) in the present experiment. The lever of HBV DNA integrated during each cellular DNA preparation (which remains constant per cell in the present experiment) was used to calculate the level of intracellular HBV DNA formed, thereby the technical variations inherent in the blot hybridization analysis can be eliminated. Typical values for extracellular HBV virion DNA in the untreated cells ranged from 50 to 150 pg/ml culture medium with an average value of about 75 pg/ml. Intracellular HBV DNA replication intermediates (RI) in the untreated cells ranged form 50 to 100 pg/μg cellular DNA with an average value of about 74 pg/μg. […]

HBV [4] = conditions: Korean Patent Laid-open No. 94-1886; cited from earlier work
[5] = cited from earlier work; for in vivo activities: in words
[6] = 2.2.15 cell culture, 9 days treatment

Row | Compound | Liver protection effect (GPT, %) (liver cells) | Number of dead animals/Number of administered animals (ICR mouse; 250 mg/kg) | Number of dead animals/Number of administered animals (ICR mouse; 1000 mg/kg) | Number of dead animals/Number of administered animals (ICR mouse; 2000 mg/kg) | mortality ([1]; 250 mg/kg) | mortality ([1]; 500 mg/kg) | mortality ([1]; 1000 mg/kg) | mortality ([1]; 2000 mg/kg) | CC50 at 216 h [2] | pEC50 (HBV [3]; [6]) | SI (selectivity Index, IC50/ED50) (HBV [3]) | Number of dead animals/Number of administered animals (ICR mouse; 500 mg/kg) | HBV replication (HBV [4]) | in vivo activities [5] | pEC50 (HBV [3]) | anti-tumor effect ([5]; Japanese Patent Laid-open No. 80/164625)
1 | COC(=O)C1=CO[C@@H](OCc2ccccc2)[C@@H]2C(CN=[N+]=[N-])=CC[C@H]12 [Compound (I)a, methyl (7R,3aS,7aS)-1-azidomethyl-7-benzyloxy-3,7,3a,7a-tetrahydro-6-oxaindene-4-carboxylate] | 65% | 0/5 | 0/5 | 0/5 | 0% | 0% | 0% | 0% | 120 µM | 4.10 | 4.5 | – | – | – | – | –
2 | COC(=O)C1=CO[C@@H]2O[C@H](OC)[C@@H]3CC[C@H]1[C@H]23 [Compound (I)b, (2S,2aR,4aS,7aR,7bS)-2-methoxy-5-methoxycarbonyl-2a,3,4,4a,7a,7b-hexa-hydro-2H-1,7-dioxacyclopent[c.d]indene] | 57% | 0/5 | 0/5 | 0/5 | 0% | 0% | 0% | 0% | 90 µM | 4.40 | 3.0 | 0/5 | – | – | – | –
3 | COC(=O)C1=CO[C@@H](OCc2ccccc2)[C@@H]2C(/C=N/OC(C)(C)C)=CC[C@H]12 [Compound (I)c, methyl (1S,5R,6S)-5-benzyloxy-7-(t-buthoxyiminomethyl)-4-oxa-bicyclo [4.3.0]nona-2,7-dien-2-carboxylate] | 64% | 0/5 | 0/5 | 0/5 | 0% | 0% | 0% | 0% | 180 µM | 4.52 | 5.7 | 0/5 | – | – | – | –
4 | COC(=O)C1=CO[C@H](OCc2ccccc2)[C@H]2[C@@H]1CC1OC(C)(C)OC12CNC(=O)Nc1cccnc1 (stereo partly drawn) [Compound (I)d, methyl (1S,8S,12S)-2-[(3-pyridyl)ureido]methyl-4,4-dimethyl-3,5,11-trioxa-12-benzyloxy-tricyclo[6.4.0.0<2,6>]dodec-9-en-9-carboxylate] | 74% | 0/5 | 0/5 | 0/5 | 0% | 0% | 0% | 0% | 70 µM | 4.70 | 2.5 | 0/5 | – | – | – | –
5 | OCC1=C[C@@H](O)[C@@H]2C=CO[C@@H](O[C@@H]3O[C@H](CO)[C@@H](O)[C@H](O)[C@H]3O)[C@H]12 [aucubin] | – | – | – | – | – | – | – | – | – | – | – | – | inhibit the HBV replication | liver-protection, inhibition of biosynthesis of RNA and protein, detoxification as well as antiviral activity | – | –
6 | Nc1ccn([C@H]2CC[C@@H](CO)O2)c(=O)n1 [ddC, dideoxy cytidine, reference compound] | – | – | – | – | – | – | – | – | > 30 µM | – | > 2.0 | – | – | – | 4.82 | –
7 | COC(=O)C1=CO[C@@H](O)[C@@H]2C(CO)=CC[C@H]12 [genipin] | – | – | – | – | – | – | – | – | – | – | – | – | inhibit the HBV replication | liver-protection, inhibition of biosynthesis of RNA and protein, detoxification as well as antiviral activity | – | effective as an anti-tumor agent
